From patent publication US20230241243A1, “CARRIER PARTICLE-DRUG CONJUGATES, SELF-IMMOLATIVE LINKERS, AND USES THEREOF” (priority 2020, published 2023) come the findings set out here.

Data set [1] concerns SKOV-3 cell line. Put plainly: In vitro cell viability assay of FA-CDCs (CellTiter-Glo2.0). The format is cell-based. The settings on record: FA ligands per particle 12-22; linker-drug conjugates per particle 17-25; read-out: IC50 inSKOV-3 cell line (+++). The procedure:
(§1) The in vitro cytotoxicity of the NDCs disclosed herein were tested in cancer cells. The cancer cells were cultured in folic acid-free medium (RPMI1640, ThermoFisher, GIBCO) for at least one week before the study. Cells were plated in opaque 96-well plates at a density of 3×10^3 cells per well (total of […]) and allowed to attach overnight. The following day, cells were treated with NDC (FA-CDC) prepared using the linker-payload conjugate precursor compound 202 (Example 33), at a concentration range of 0-50 nM (0, 0.001, 0.005, 0.01, 0.05, 0.1, 0.5, 1, 5, 10, 50 nM) by adding […] of 10x stock FA-CDC Solution.
(§2) Cells were treated for a pre-defined exposure time (depending on the study design, e.g., 4-6 hours, or 7 days). In the case of short-exposure-time viability study, cancer cells in each wells were washed with […] PBS and refreshed with […] of cell medium. After washing, the plates were returned back to 37° C. incubator for 7 days before the viability assay. In the case of 7-day-exposure-time viability study, no additional washing step was performed. After 7 days, the cell viability was assessed using the CellTiter-Glo2.0 assay (Promega) according to manufacturer's instructions. Data for both viability and proliferation were plotted using Prism7 software (GraphPad). Representative cell viability results of six FA-CDCs with similar surface density of Folic Acid targeting ligands and drug linkers is presented in provided in Table 4.

Data set [2] in a line: Drug-release assay of nanoparticle-conjugated linker-payloads under cleavage conditions (Cat-B, redox-responsive or pH-sensitive cleaving study), RP-HPLC. The format is in vitro ADME. As to conditions: linker-payload conjugated to DBCO-functionalized silica nanoparticle, 37° C., 24 hours. A digest of the protocol: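 Azide linker-drugs were click-conjugated to DBCO-functionalized ultrasmall silica nanoparticles and incubated under cleavage conditions, e.g., Cat-B in 25 mM MES, 5 mM DTT, pH 5.0. Released versus non-released drug was quantified by C18 RP-HPLC peak area. Gradients were 0.01% TFA water/acetonitrile for protease/redox linkers and water/acetonitrile for pH-sensitive linkers.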

Data set [3] deals with KB cell line. The settings on record: read-out: IC50 in KB cell line (++++); FA ligands per particle 12-22; linker-drug conjugates per particle 17-25. On the procedure:
as §1
as §2, with “(GraphPad).” for “(GraphPad). Representative cell viability results of six FA-CDCs with similar surface density of Folic Acid targeting ligands and drug linkers is presented in provided in Table 4.”

Regarding `CC[C@@]1(O)C(=O)OCc2c1cc1n(c2=O)Cc2c-1nc1cc(F)c(C)c3c1c2[C@@H](NC(=O)OCc1ccc(NC(=O)[C@H](CCCCN)NC(=O)[C@H](Cc2ccccc2)NC(=O)CCOCCOCCOCCOCCOCCOCCOCCOCCOCCN=[N+]=[N-])cc1)CC3` (single isomer, unassigned) [Example 25], the IC50 in data set [1] worked out at 0.4 nM. In addition, the “% of Payload Release in 24 Hours Under Cleavage Conditions” value (“% of Payload Release” below) in data set [2] was “+++ (‘+++’ indicates 51-75% release)”.
For `CC[C@@]1(O)C(=O)OCc2c1cc1n(c2=O)Cc2c-1nc1cc(F)c(C)c3c1c2[C@@H](NC(=O)OCc1ccc(NC(=O)[C@H](CCCNC(N)=O)NC(=O)[C@@H](NC(=O)CCOCCOCCOCCOCCOCCOCCOCCOCCOCCN=[N+]=[N-])C(C)C)cc1)CC3` [Example 10, 4-((32S,35S)-1-azido-32-isopropyl-30,33-dioxo-35-(3-ureidopropyl)-3,6,9,12,15,18,21,24,27-nonaoxa-31,34-diazahexatriacontan-36-amido)benzyl-((1S,9S)-9-ethyl-5-fluoro-9-hydroxy-4-methyl-10,13-dioxo-2,3,9,10,13,15-hexahydro-1H,12H-benzo-[de]-pyrano-[3′,4′:6,7]-indolizino-[1,2-b]-quinolin-1-yl)-carbamate] the same measures were 10.7 nM and “+++ (‘+++’ indicates 51-75% release)”.
`CC[C@@]1(O)C(=O)OCc2c1cc1n(c2=O)Cc2c-1nc1cc(F)c(C)c3c1c2[C@@H](NC(=O)OCc1ccc(NC(=O)[C@H](CCCCN)NC(=O)[C@@H](NC(=O)CCOCCOCCOCCOCCOCCOCCOCCOCCOCCN=[N+]=[N-])C(C)C)cc1)CC3` [Example 33, 4-((32S,35S)-35-(4-aminobutyl)-1-azido-32-isopropyl-30,33-dioxo-3,6,9,12,15,18,21,24,27-nonaoxa-31,34-diazahexatriacontan-36-amido)benzyl ((1S,9S)-9-ethyl-5-fluoro-9-hydroxy-4-methyl-10,13-dioxo-2,3,9,10,13,15-hexahydro-1H,12H-benzo[de]pyrano[3′,4′:6,7]indolizino[1,2-b]quinolin-1-yl)carbamate]: the IC50 in data set [1] amounted to 0.13 nM; in data set [3] it was 0.3 nM. Besides, the “% of Payload Release” value in data set [2] is “++++ (‘++++’ indicates 76-100% release)”.
The like results for `CC[C@@]1(O)C(=O)OCc2c1cc1n(c2=O)Cc2c-1nc1cc(F)c(C)c3c1c2[C@@H](NC(=O)OCCSSCCNC(=O)CCOCCOCCOCCOCCOCCOCCOCCOCCOCCN=[N+]=[N-])CC3` [Example 57, 37-azido-8-oxo-11,14,17,20,23,26,29,32,35-nonaoxa-3,4-dithia-7-azaheptatriacontyl ((1S,9S)-9-ethyl-5-fluoro-9-hydroxy-4-methyl-10,13-dioxo-2,3,9,10,13,15-hexahydro-1H,12H-benzo[de]pyrano[3′,4′:6,7]indolizino[1,2-b]quinolin-1-yl)carbamate] were, in that order, 0.9 nM, 0.6 nM and “+++ (‘+++’ indicates 51-75% release)”.
Turning to `CC[C@@]1(O)C(=O)OCc2c1cc1n(c2=O)Cc2c-1nc1cc(F)c(C)c3c1c2[C@@H](NC(=O)OCc1ccc(SSC(C)(C)CNC(=O)CCOCCOCCOCCOCCOCCOCCOCCOCCOCCN=[N+]=[N-])cc1)CC3` [Example 58, 4-((1-azido-33-methyl-30-oxo-3,6,9,12,15,18,21,24,27-nonaoxa-31-azatetratriacontan-33-yl)disulfanyl)benzyl ((1S,9S)-9-ethyl-5-fluoro-9-hydroxy-4-methyl-10,13-dioxo-2,3,9,10,13,15-hexahydro-1H,12H-benzo[de]pyrano[3′,4′:6,7]indolizino[1,2-b]quinolin-1-yl)carbamate], in data set [2], the “% of Payload Release” value is “++++ (‘++++’ indicates 76-100% release)”. In addition, the half-maximal inhibitory concentration (IC50) in data set [3] came out at 49.4 nM.
For `CCc1c2c(nc3ccc(OCC(=O)N/N=C(\C)c4cccc(OCCOCCOCCOCCOCCOCCN=[N+]=[N-])c4)cc13)-c1cc3c(c(=O)n1C2)COC(=O)[C@]3(O)CC` [Example 70, (S,E)-N′-(1-(3-((17-azido-3,6,9,12,15-pentaoxaheptadecyl)oxy)phenyl)ethylidene)-2-((4,11-diethyl-4-hydroxy-3,14-dioxo-3,4,12,14-tetrahydro-1H-pyrano[3′,4′:6,7]indolizino[1,2-b]quinolin-9-yl)oxy)acetohydrazide], in data set [1], the IC50 came to 17.9 nM.
